# Laboratory results taken from US9260739B2, “Method for the detection of acid production by cariogenic bacteria” (Ivoclar Vivadent AG, priority 2010, dated 2016).
# Test system: S. sobrinus
# Test: Acid production in vitro by pure culture, colour change of pH indicator
# Type: cell-based
# Conditions: carbon source at 20% in the reaction batch, only S. sobrinus, FIG. 1
# Procedure: Stock cultures of the strain selected for the experiments were stored on CRYOBANK (Mast Diagnostica, CRYO/M) ceramic supports at a temperature of −80° C. For culturing, a ceramic ring was placed into 10 ml of nutrient medium and incubated 14-72 h. This culture was designated passage 0 (P0). Then, 100 μl of culture were inoculated into 10 ml of fresh medium and incubated for 24 h. Cultures of passage 2 were used for the subsequent experiments on acid production. The cultures were diluted in this case until an absorption at 650 nm of about 0.6-1.0 was obtained. The bacterial suspensions were centrifuged at 8000 rpm for 5 minutes. The culture supernatant was removed and the pellet was resuspended in the same volume of water (10 ml, deionized, sterile). The sample was centrifuged again (8000 rpm, 5 minutes) and the supernatant was removed. The pellet was subsequently resuspended in 1 ml of deionized water which corresponds to 1/10 of the original volume. […] Then, the appropriate pH was adjusted and the mixture was filled up to the calculated volume using deionized water. […] After addition of the bacterial suspension to the respective test solution, the colour change of the pH indicator was assessed visually against a reference sample (only test solution) at regular intervals. […]
row,Structure (SMILES),time within which acid formation can be detected
1,OC[C@H]1O[C@@](CO)(O[C@H]2O[C@H](CO)[C@@H](O)[C@H](O)[C@H]2O)[C@@H](O)[C@@H]1O [sucrose],≤ 15 min

# Test system: not listed separately
# Test: pK of pH indicators
# Type: physicochemical
# Conditions: pH indicator
# Procedure: In an alternative embodiment, the pH is determined using a pH indicator which changes colour on acid formation. The pH indicator is preferably added to the cariogenic bacteria together with the carbon source, e.g. by joint immobilization of pH indicator and carbon source on a test strip or by simultaneous addition of pH indicator and carbon source (preferably in the form of a single solution) to a diluted, undiluted or concentrated plaque or saliva sample. […] These comprise, e.g., the indicators bromocresol purple, bromocresol green, m-cresol purple, bromothymol blue, phenol red and chlorophenol red. […] The incubation time that must be applied until a colour change can be detected, depends on the carbon sources and test reagents used and also on their absolute and relative quantitative ratios to one another. In a preferred embodiment, the time period to a colour change of the pH indicator is less than 60 minutes, less than 45 minutes, less than 30 minutes, less than 20 minutes or less than 15 minutes after mixing bacteria, carbon source and indicator.
row,Structure (SMILES),pK
1,Cc1cc(C2(c3cc(C)c(O)c(Br)c3)OS(=O)(=O)c3ccccc32)cc(Br)c1O [Bromocresol purple],6
2,Cc1cc(O)ccc1C1(c2ccc(O)cc2C)OS(=O)(=O)c2ccccc21 [m-Cresol purple],8.2

# More lines, now with the values ahead:
row,pK,Structure (SMILES)
1,4.7,Cc1c(C2(c3cc(Br)c(O)c(Br)c3C)OS(=O)(=O)c3ccccc32)cc(Br)c(O)c1Br [Bromocresol green]
2,7,Cc1c(C2(c3cc(C(C)C)c(O)c(Br)c3C)OS(=O)(=O)c3ccccc32)cc(C(C)C)c(O)c1Br [Bromothymol blue]
3,5.6,O=S1(=O)OC(c2ccc(O)c(Cl)c2)(c2ccc(O)c(Cl)c2)c2ccccc21 [Chlorophenol red]
